Data taken from patent publication US11427548B2 (Arvinas Operations, Inc., priority 2015, dated 2022).
Read-outs that look alike come from different tables or passages of the source.

Target: T1, Androgen Receptor (Homo sapiens, UniProt P10275)
T1 construct: endogenous in cells; host or cells: VCaP cells
T1 sequence (P10275 1-920): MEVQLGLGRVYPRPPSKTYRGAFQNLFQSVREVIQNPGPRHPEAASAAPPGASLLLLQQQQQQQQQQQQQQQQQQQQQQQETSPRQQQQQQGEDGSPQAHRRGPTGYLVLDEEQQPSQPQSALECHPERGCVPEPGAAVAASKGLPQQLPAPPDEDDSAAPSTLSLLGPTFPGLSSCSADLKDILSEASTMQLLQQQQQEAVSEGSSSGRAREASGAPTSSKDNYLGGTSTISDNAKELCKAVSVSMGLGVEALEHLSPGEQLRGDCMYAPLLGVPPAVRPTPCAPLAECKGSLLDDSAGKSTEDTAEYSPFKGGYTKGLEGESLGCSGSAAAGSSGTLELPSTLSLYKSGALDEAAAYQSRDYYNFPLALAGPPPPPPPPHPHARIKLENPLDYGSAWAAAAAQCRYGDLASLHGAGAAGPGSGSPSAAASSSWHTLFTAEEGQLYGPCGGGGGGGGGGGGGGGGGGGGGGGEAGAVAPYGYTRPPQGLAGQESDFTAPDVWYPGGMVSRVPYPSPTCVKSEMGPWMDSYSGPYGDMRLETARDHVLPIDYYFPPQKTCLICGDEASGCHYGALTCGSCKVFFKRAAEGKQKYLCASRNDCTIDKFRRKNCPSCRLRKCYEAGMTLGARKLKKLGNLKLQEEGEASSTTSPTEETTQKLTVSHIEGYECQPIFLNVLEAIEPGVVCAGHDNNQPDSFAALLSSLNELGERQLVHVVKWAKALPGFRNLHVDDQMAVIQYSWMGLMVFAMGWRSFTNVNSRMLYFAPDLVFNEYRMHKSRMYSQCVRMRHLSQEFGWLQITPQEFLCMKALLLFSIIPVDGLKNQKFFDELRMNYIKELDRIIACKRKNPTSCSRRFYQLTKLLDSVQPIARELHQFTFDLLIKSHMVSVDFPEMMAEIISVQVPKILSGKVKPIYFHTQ
Assay: Androgen Receptor ELISA assay (PathScan AR ELISA) in VCaP cells: AR degradation, Dmax and DC50
Type: cell-based
Procedure, shortened: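 VCaP cells in phenol red-free RPMI with 5% charcoal-stripped FBS were grown at least 3 days, then given compound as 7 half-log doses in 0.1% DMSO with 0.1 nM R1881 for 24 h. Lysates went into a sandwich AR ELISA with TMB read at 450 nm.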

[1] = VCaP cells; Table 36; read-out: VCaP DC50
[2] = VCaP, VCaP cells; Table 36; read-out: VCaP Dmax (%)
[3] = VCaP, read-out: VCaP Dmax (%), VCaP cells; Table 36
[4] = read-out: VCaP DC50; VCaP cells; Table 34

With `CC(C)(C)[C@H](NC(=O)COCCN1CCN(c2ccc(C(=O)N[C@H]3C(C)(C)[C@H](Oc4ccc(C#N)c(Cl)c4)C3(C)C)cn2)CC1)C(=O)N1C[C@H](O)C[C@H]1C(=O)NCc1ccc(C2CCOCC2)cc1` [Example 760, N-((1r,3r)-3-(3-chloro-4-cyanophenxoy)-2,2,4,4-tetramethylcyclobutyl) 6-(4-(2-(2-(((S)-1-((2S,4R)-4-hydroxy-2-((4-(tetrahydro-2H-pyran-4-yl)benzyl)carbamoyl)pyrrolidin-1-yl)-3,3-dimethyl-1-oxobutan-2-yl)amino)-2-oxoethoxy)ethyl)pipera-zin-1-yl)nicotinamide] the DC50 [1] was greater than 501 nM and the Dmax [2] was 26 to 50%.
With `Cc1ncsc1-c1ccc(CNC(=O)[C@@H]2C[C@@H](O)CN2C(=O)[C@@H](NC(=O)CNC(=O)c2ccc(Oc3ccc(C(=O)N[C@H]4C(C)(C)[C@H](Oc5ccc(C#N)c(Cl)c5)C4(C)C)cc3)cc2)C(C)(C)C)cc1` [Example 187, (2S,4R)-1-[(2S)-3,3-dimethyl-2-(2-{[4-(4-{[trans-3-(3-chloro-4-cyanophenoxy)-2,2,4,4-tetramethylcyclobutyl]carbamoyl}phenoxy)phenyl] formamido}acetamido)butanoyl]-4-hydroxy-N-{[4-(4-methyl-1,3-thiazol-5-yl)phenyl]methyl} pyrrolidine-2-carboxamide] the Dmax (VCaP, highest percentage of Androgen Receptor degradation observed, VCaP cells (Table 32); read-out: VCaP Dmax (%)) was greater than 71% and the DC50 (concentration that caused 50% Androgen Receptor degradation, VCaP cells (Table 32); read-out: VCaP DC50) was less than 50 nM.
For `CC(C)(C)[C@H](NC(=O)CNc1ccc(C#Cc2ccc(C(=O)N[C@H]3C(C)(C)[C@H](Oc4ccc(C#N)c(Cl)c4)C3(C)C)cc2)cn1)C(=O)N1C[C@H](O)C[C@H]1C(=O)NCc1ccc(C#N)cc1` [Example 498], the DC50 (VCaP cells; Table 35; read-out: VCaP DC50) was less than 50 nM and the Dmax (VCaP, VCaP cells; Table 35; read-out: VCaP Dmax (%)) was greater than 71%.
`Cc1ncsc1-c1ccc(CNC(=O)[C@@H]2C[C@@H](O)CN2C(=O)[C@@H](NC(=O)CN2CCC(OCCOc3ccc(C(=O)N[C@H]4C(C)(C)[C@H](Oc5ccc(C#N)c(C(F)(F)F)c5)C4(C)C)cc3)CC2)C(C)(C)C)cc1` [Example 640, (2S,4R)-1-((S)-2-(2-(4-(2-(4-(((1r,3r)-3-(4-cyano-3-(trifluorometh-yl)phenoxy)-2,2,4,4-tetramethylcyclobutyl)carbamoyl)phenoxy)eth-oxy)piperidin-1-yl)acetamido)-3,3-dimethylbutanoyl)-4-hydroxy-N-(4-(4-methylthiazol-5-yl)benzyl)pyrrolidine-2-carboxamide] was tested, and the DC50 [1] was less than 50 nM and the Dmax [3] was greater than 71%.
Work on `CC(NC(=O)C1CC(O)CN1C(=O)C(c1cc(OCCN2CCN(c3ccc(C(=O)NC4C(C)(C)C(Oc5ccc(C#N)c(Cl)c5)C4(C)C)cn3)CC2)no1)C(C)C)c1ccc(C#N)cc1` [Example 697, N-((1r,3r)-3-(3-chloro-4-cyanophenoxy)-2,2,4,4-tetramethylcyclobutyl)-6-(4-(2-((5-((R)-1-((2S,4R)-2-(((S)-1-(4-cyanophenyl)ethyl)carb-amoyl)-4-hydroxypyrrolidin-1-yl)-3-methyl-1-oxobutan-2-yl)isoxazol-3-yl)oxy)ethyl)piperazin-1-yl)nicotinamide] yielded a DC50 [1] of less than 50 nM and a Dmax [3] of 26 to 50%.
Work on `Cc1ncsc1-c1ccc([C@H](C)NC(=O)[C@@H]2C[C@@H](O)CN2C(=O)[C@@H](NC(=O)COCCCCCNc2ccc(C(=O)N[C@H]3C(C)(C)[C@H](Oc4ccc(C#N)c(Cl)c4)C3(C)C)nn2)C(C)(C)C)cc1` [Example 607, N-((1r,3r)-3-(3-chloro-4-cyanophenoxy)-2,2,4,4-tetramethylcyclobutyl)-6-((5-(2-(((S)-1-((2S,4R)-4-hydroxy-2-(((S)-1-(4-(4-methylthiazol-5-yl)phenyl)ethyl)carbam-oyl)pyrrolidin-1-yl)-3,3-dimethyl-1-oxobutan-2-yl)amino)-2-oxoethoxy)pentyl)amino) pyridazine-3-carboxamide] yielded a DC50 [1] greater than 501 nM and a Dmax [3] of 26 to 50%.
For `Cc1ncsc1-c1ccc(CNC(=O)[C@@H]2C[C@@H](O)CN2C(=O)[C@@H](NC(=O)COCC#CCOCCOc2ccc(N3C(=S)N(c4ccc(C#N)c(C(F)(F)F)c4)C(=O)C3(C)C)cc2)C(C)(C)C)cc1` [Example 319], the Dmax (VCaP, read-out: VCaP Dmax (%)) was 26 to 50% and the DC50 [4] was less than 50 nM.
`Cc1ncsc1-c1ccc(CNC(=O)[C@@H]2C[C@@H](O)CN2C(=O)[C@H](C(C)C)n2cc(Oc3cccc(OCCCCCOc4ccc(N5C(=S)N(c6ccc(C#N)c(C(F)(F)F)c6)C(=O)C5(C)C)cc4)c3)cn2)cc1` [Example 601, (2S,4R)-1-((S)-2-(4-(3-((5-(4-(3-(4-cyano-3-(trifluoromethyl)phenyl)-5,5-dimethyl-4-oxo-2-thioxoimidazolidin-1-yl)phenoxy)pentyl)oxy)phenoxy)-1H-pyrazol-1-yl)-3-methylbutanoyl)-4-hydroxy-N-(4-(4-methylthiazol-5-yl)benzyl)pyrrolidine-2-carboxamide] showed a Dmax (VCaP, read-out: VCaP Dmax (%)) of less than 25% and a DC50 (read-out: VCaP DC50; VCaP cells; Table 36) greater than 501 nM.
Work on `Cc1ncsc1-c1ccc(CNC(=O)[C@@H]2C[C@@H](O)CN2C(=O)[C@@H](NC(=O)COCCCOCCCCNc2ccc(N3C(=S)N(c4ccc(C#N)c(C(F)(F)F)c4)C(=O)C3(C)C)cc2)C(C)(C)C)cc1` [Example 333] yielded a Dmax (VCaP, read-out: VCaP Dmax (%)) of 51 to 70% and a DC50 [4] of less than 50 nM.
`Cc1ncsc1-c1ccc(CNC(=O)[C@@H]2C[C@@H](O)CN2C(=O)[C@@H](NC(=O)COc2cccc(Oc3ccc(-c4ccc(N5C(=S)N(c6ccc(C#N)c(C(F)(F)F)c6)C(=O)C5(C)C)cc4)cc3)c2)C(C)(C)C)cc1` [Example 114, (2S,4R)-1-[(2S)-2-(2-{3-[4-(4-{3-[4-cyano-3-(trifluoromethyl)phenyl]-5,5-dimethyl-4-oxo-2-sulfanylideneimidazolidin-1-yl}phenyl)phen-oxy]phenoxy}acetamido)-3,3-dimethylbutanoyl]-4-hydroxy-N-{[4-(4-methyl-1,3-thiazol-5-yl)phenyl]methyl}pyrrolidine-2-carboxamide] gave a Dmax (VCaP, read-out: VCaP Dmax (%)) of 51 to 70% and a DC50 (read-out: VCaP DC50; concentration that caused 50% Androgen Receptor degradation, VCaP cells (Table 32)) of less than 50 nM.
`Cc1ncsc1-c1ccc([C@H](CO)NC(=O)[C@@H]2C[C@@H](O)CN2C(=O)[C@@H](NC(=O)CN2CCN(CCCc3ccc(C(=O)N[C@H]4C(C)(C)[C@H](Oc5ccc(C#N)c(Cl)c5)C4(C)C)cc3)CC2)C(C)(C)C)cc1` [Example 820, (2S,4R)-1-((S)-2-(2-(4-(3-(4-(((1r,3r)-3-(3-chloro-4-cyanophenoxy)-2,2,4,4-tetramethylcyclobutyl)carbamoyl)phenyl)propyl)piperazin-1-yl)acetamido)-3,3-dimethylbutanoyl)-4-hydroxy-N-((R)-2-hydroxy-1-(4-(4-methylthiazol-5-yl)phenyl)ethyl) pyrrolidine-2-carboxamide] was tested, and the DC50 [1] was less than 50 nM and the Dmax [2] was greater than 71%.
`Cc1ncsc1-c1ccc([C@H](C)NC(=O)[C@@H]2C[C@@H](O)CN2C(=O)[C@@H](NC(=O)COCCCCCNC23CC(C(=O)N[C@H]4C(C)(C)[C@H](Oc5ccc(C#N)c(Cl)c5)C4(C)C)(C2)C3)C(C)(C)C)cc1` [Example 666, (2S,4R)-1-((S)-2-(2-((5-((3-(((1r,3r)-3-(3-chloro-4-cyanophenoxy)-2,2,4,4-tetramethylcyclobutyl)carbamoyl)bicyclo[1.1.1]pentan-1-yl)amino)pentyl)oxy)acetamido)-3,3-dimethylbutanoyl)-4-hydroxy-N-((S)-1-(4-(4-methylthiazol-5-yl)phenyl)ethyl)pyrrolidine-2-carboxamide] was tested, and the DC50 [1] was greater than 501 nM and the Dmax [2] was 26 to 50%.
In the case of `CC(C)(C)[C@H](NC(=O)COCCCCCOCCn1cc(C(=O)N[C@H]2C(C)(C)[C@H](Oc3ccc(C#N)c(Cl)c3)C2(C)C)cn1)C(=O)N1C[C@H](O)C[C@H]1C(=O)NCc1ccc(-c2cncs2)cc1` [Example 339], the DC50 (VCaP cells; Table 34; read-out: VCaP DC50) is reported as less than 50 nM and the Dmax (VCaP, VCaP cells; Table 34; read-out: VCaP Dmax (%)) is reported as greater than 71%.
